Laboratory results published in patent US10688099B2, “Methods for modulating the amount of RNA transcripts” (PTC Therapeutics, Inc., priority 2013, dated 2020).

Test system: RNA isoforms in PNN 1-46 SMA type I patient-derived fibroblasts
Assay: RNA Abundance Modulation (RNA isoform abundance, iFPM, HiSeq RNA sequencing)
Assay type: cell-based, human
Conditions: 3 μM
Experimental: Cells from a cell line of interest are cultured in conditions sufficient to yield the number of cells capable of generating enough RNA for subsequent sequencing steps. Cells from the tested cell line are contacted with a compound described herein.
To culture said cells, they are seeded, at appropriate concentrations in a volume of media in a cell culture container and incubated for 4, 5, 6, 7, 8, 9, 10, or more hours. A concentrated solution of compound in a vehicle (e.g., DMSO) is then added in sufficient volume to result in the intended final concentration of the compound, for example 100 nM, 500 nM, 1 μM, 5 μM, 10 μM, 15 μM, 20 μM, or more. The cells may also be treated with vehicle alone, as a control. A number of replicates of each concentration or control may be made (e.g., 2 replicates). The cells are then incubated at a constant temperature appropriate for cell culture of the particular cell line (e.g., 37° C.) for 6, 12, 18, 24, 48, or more hours. After incubation, the growth medium is removed and the cells are washed with the appropriate buffer (e.g., PBS). Cells are then removed from adherence to the cell culture container by treatment with a solution containing trypsin, and the trypsin subsequently quenched with the appropriate volume of buffer (e.g., DMEM-FBS). The cells are then pelleted with gentle centrifugation (e.g., ≤90×g centrifugal force) and resuspended in a buffer to lyse the cells for extraction of RNA. The cell lysates may then be frozen (e.g., at −80° C.) or, alternately, may immediately be used in a procedure to purify the RNA (e.g. by use of the RNEASY PLUS® minikit). The RNA from cell lysates is eluted in the appropriate volume of buffer (e.g., RNEASE-FREE H2O®). The resulting purified RNA may then be sequenced (e.g., using RNASeq) or analyzed using a human exon array (e.g., by GENECHIP® human exon array) to determine changes in the RNA levels in those cells treated with compound compared to those cells treated only with DMSO. The purified RNA may also be quantified by other methods known in the art.
Using the RNA data obtained from sequencing, exon array, or other methods, a statistical analysis can reveal changes in the RNA levels of compound-treated compared with control. For example, t-test p-values may be calculated for the data obtained through sequencing and exon array methods in order to compare compound-treated cells to those treated with the DMSO control. […] Analysis of the sequencing and exon array data may then also yield predictions about the cause of the aberrant amount of an RNA transcript in the cells (e.g., perturbation of RNA splicing, RNA transcription, or RNA stability). These predictions may be further confirmed by methods known in the art. For example, RT-PCR and RT-qPCR may be used to confirm the change in amount of RNA transcripts for one or more particular transcripts of interest.
Following the methods described above in Example 1, PNN 1-46 SMA type I patient-derived fibroblasts were treated with 300 nM or 3 μM Compounds 774 and 808 in 0.5% DMSO.
700,000 cells were seeded in 10 mL of medium (DMEM plus 10% FBS) in a T-75 flask. Cells were allowed to attach for at least 4 hrs, after which 50 μL of a 200× compound solution (100% DMSO) was added to each well, and the plate was incubated at 37° C. for 24 hrs.
At the end of the incubation period, the supernatant was removed and the cells where washed with PBS. TrypLE (Invitrogen) express solution was added (e.g. 1.5 mL per one T75 flask). The flasks were incubated for 3 to 5 min at 37° C. The trypsin was then quenched, e.g., by adding 10 mL DMEM-FBS.
Next, the cells were pelleted using gentle centrifugation without exceeding 90×g centrifugal force. The supernatant was removed and the cell pellet was re-suspended in 600 μL RLT buffer (the RLT buffer was supplemented with beta-mercaptoethanol according to the RNeasy protocol manual) by pipetting up and down until the pellet was completely dissolved […]

CCc1nc(C)cn2nc(-c3cc(=O)n4cc(C5CCN(C)CC5)cc(C)c4n3)cc12 [Compound 774]
amp FC (x + 1) (TOMM5 CR627326): 2.36
ave Cpd (TOMM5 CR627326): 4 iFPM
FC (x + 1) (TOMM5 NM_001001790): 0.3953
L2FC (x + 1) (TOMM5 NM_001001790): −1.339
L2abs (Cpd-DMSO) (TOMM5 NM_001001790): 10.21
abs (Cpd-DMSO) (TOMM5 NM_001001790): 1185 iFPM
amp FC (x + 1) (TOMM5 NM_001001790): 2.53
ave Cpd (TOMM5 NM_001001790): 774 iFPM
FC (x + 1) (TOMM5 NM_001134484): 0.2630
L2FC (x + 1) (TOMM5 NM_001134484): −1.927
L2abs (Cpd-DMSO) (TOMM5 NM_001134484): 3.41
abs (Cpd-DMSO) (TOMM5 NM_001134484): 11 iFPM
amp FC (x + 1) (TOMM5 NM_001134484): 3.80
ave Cpd (TOMM5 NM_001134484): 3 iFPM
FC (x + 1) (TOMM5 NM_001134485): 0.4705
L2FC (x + 1) (TOMM5 NM_001134485): −1.088
L2abs (Cpd-DMSO) (TOMM5 NM_001134485): 4.88
abs (Cpd-DMSO) (TOMM5 NM_001134485): 29 iFPM
amp FC (x + 1) (TOMM5 NM_001134485): 2.13
ave Cpd (TOMM5 NM_001134485): 25 iFPM
FC (x + 1) (TRAF3 NM_003300): 0.1622
L2FC (x + 1) (TRAF3 NM_003300): −2.624
L2abs (Cpd-DMSO) (TRAF3 NM_003300): 8.22
abs (Cpd-DMSO) (TRAF3 NM_003300): 298 iFPM
amp FC (x + 1) (TRAF3 NM_003300): 6.17
ave Cpd (TRAF3 NM_003300): 57 iFPM
FC (x + 1) (TRAF3 NM_145725): 0.7367
L2FC (x + 1) (TRAF3 NM_145725): −0.441
L2abs (Cpd-DMSO) (TRAF3 NM_145725): 8.08
abs (Cpd-DMSO) (TRAF3 NM_145725): 271 iFPM
amp FC (x + 1) (TRAF3 NM_145725): 1.36
ave Cpd (TRAF3 NM_145725): 757 iFPM
FC (x + 1) (TRAF3 NM_145726): 1.0000
L2FC (x + 1) (TRAF3 NM_145726): 0.000
L2abs (Cpd-DMSO) (TRAF3 NM_145726): 0
abs (Cpd-DMSO) (TRAF3 NM_145726): 0 iFPM
amp FC (x + 1) (TRAF3 NM_145726): 1.00
ave Cpd (TRAF3 NM_145726): 0 iFPM
FC (x + 1) (TRAF3 NM_001199427): 1.2405
L2FC (x + 1) (TRAF3 NM_001199427): 0.311
L2abs (Cpd-DMSO) (TRAF3 NM_001199427): 2.15
abs (Cpd-DMSO) (TRAF3 NM_001199427): 4 iFPM
amp FC (x + 1) (TRAF3 NM_001199427): 1.24
ave Cpd (TRAF3 NM_001199427): 22 iFPM
FC (x + 1) (TRAK1 AK295848): 1.1521
L2FC (x + 1) (TRAK1 AK295848): 0.204
L2abs (Cpd-DMSO) (TRAK1 AK295848): 6.64
abs (Cpd-DMSO) (TRAK1 AK295848): 100 iFPM
amp FC (x + 1) (TRAK1 AK295848): 1.15
ave Cpd (TRAK1 AK295848): 755 iFPM
FC (x + 1) (TRAK1 NM_014965): 0.0190
L2FC (x + 1) (TRAK1 NM_014965): −5.718
L2abs (Cpd-DMSO) (TRAK1 NM_014965): 5.69
abs (Cpd-DMSO) (TRAK1 NM_014965): 52 iFPM
amp FC (x + 1) (TRAK1 NM_014965): 52.63
ave Cpd (TRAK1 NM_014965): 0 iFPM
FC (x + 1) (TRAK1 NM_001042646): 0.6949
L2FC (x + 1) (TRAK1 NM_001042646): −0.525
L2abs (Cpd-DMSO) (TRAK1 NM_001042646): 7.09
abs (Cpd-DMSO) (TRAK1 NM_001042646): 136 iFPM
amp FC (x + 1) (TRAK1 NM_001042646): 1.44
ave Cpd (TRAK1 NM_001042646): 309 iFPM
FC (x + 1) (TRAK1 NM_001265608): 0.8894
L2FC (x + 1) (TRAK1 NM_001265608): −0.169
L2abs (Cpd-DMSO) (TRAK1 NM_001265608): 6.46
abs (Cpd-DMSO) (TRAK1 NM_001265608): 88 iFPM
amp FC (x + 1) (TRAK1 NM_001265608): 1.12
ave Cpd (TRAK1 NM_001265608): 705 iFPM
FC (x + 1) (TRAK1 NM_001265610): 0.6862
L2FC (x + 1) (TRAK1 NM_001265610): −0.543
L2abs (Cpd-DMSO) (TRAK1 NM_001265610): 3.13
abs (Cpd-DMSO) (TRAK1 NM_001265610): 9 iFPM
amp FC (x + 1) (TRAK1 NM_001265610): 1.46
ave Cpd (TRAK1 NM_001265610): 18 iFPM
FC (x + 1) (TRAPPC12 AK094181): 1.2209
